Laboratory results published in US9789058B2, “Ophthalmic composition for the treatment of ocular infection” (CooperVision International Holding Company, LP, priority 2014, dated 2017).
Values after ≈ are worked out from the molar mass of the structure shown. Read-outs that look alike come from different tables or passages of the source. Each block holds one compound with its values, some of them ahead of it.

What was measured:
[1] = tested on: methicillin-susceptible S. aureus (MSSA); assay: Broth microdilution susceptibility (MIC), MSSA isolates; format: cell-based, Staphylococus aureus; settings: N=25 isolates
Procedure: (§1) The MIC50 and MIC90 of εPL against methicillin-sensitive Staphylococus aureus) and MRSA were determined in these studies. (The “Minimum”, “Maximum”, and MIC50 and MIC90 in the Table are provided in units of μg/ml.) Other antimicrobial agents such as tobramycin, moxifloxacin, and PHMB (polyhexamethylene biguanid) were included for comparison. Broth microdilution tests were performed in accordance with the Clinical and Laboratory Standards Institute (CLSI) (M07-A9, Vol. 32 No. 2, January, 2012) for aerobic and facultative anaerobic strains. Cation-adjusted Mueller-Hinton broth was used for testing staphylococci species.

[2] = tested on: methicillin-resistant S. aureus (MRSA); assay: Broth microdilution susceptibility (MIC), MRSA isolates; format: cell-based, Staphylococus aureus; settings: for MIC / MIC50 / MIC90 / Maximum (MIC) / Minimum (MIC): MRSA, N=25 isolates
Procedure: as §1

MRSA strain K-950 = assay: Time-kill study (bactericidal activity); format: cell-based, Staphylococus aureus; settings: for decrease of MRSA colony counts: 8 hours post-inoculation
Procedure: The bactericidal activity of εPL against MRSA strain K-950 was evaluated. […] Test tubes containing 0.5 mL of εPL at 0.25 μg/mL, 1.0 μg/mL, 4.0 μg/mL or 16.0 μg/mL εPL in Mueller Hinton broth growth media and approximately 10^6 CFU/mL of K-950 were incubated at 37° C. After 1, 2, 4, 6, 8 and 24 hours of incubation, the test tubes were removed and colony forming units were calculated. To calculate CFU, 100 μL of the medium was removed from a tube and serially diluted (1:10 dilutions) in the medium. Aliquots of 100 μL of each dilution were plated, in duplicate, onto TSA agar plates containing 5% sheep's blood. The plates were incubated at 37° C. overnight and the colonies were counted the next day.

[3] = Ocular toxicity study in rabbits; format: in vivo
Procedure: Rabbits were divided into three treatment groups, each was treated with increasing concentrations of εPL (50, 150, and 500 μg/mL) in phosphate buffered saline (PBS) at pH 7.3. Specifically, rabbits from each group were dosed with a drop of εPL solution in the left eye of a rabbit eight times during a seven-hour period. The right eye was dosed with PBS. Macroscopic examinations were performed prior to the first dose, and 10 minutes following each dose. Slit lamp microscopic examinations were performed prior to the first dose and at termination. Ocular tissues were collected at termination and submitted for histological evaluation.
During the dosing period, there were some sporadic occurrences of conjunctival discharge as observed by macroscopic examination. However, they were equally divided between εePL-treated and PBS-treated eyes.

[4] = Staphylococcus aureus, cation-adjusted Mueller-Hinton broth, read-out: Minimum (MIC)
[5] = Staphylococcus aureus, read-out: MIC50
[6] = Staphylococcus aureus, read-out: MIC90
[7] = Staphylococcus aureus, read-out: Maximum (MIC)
[8] = cation-adjusted Mueller-Hinton broth

MIC [1, 4]: 0.03 µg/mL (≈ 0.0747 µM)
MIC50 [1, 5]: 0.06 µg/mL (≈ 0.149 µM)
MIC90 [1, 6]: 1 µg/mL (≈ 2.49 µM)
MIC [1, 7]: 1 µg/mL (≈ 2.49 µM)
MIC [2, 4]: 0.03 µg/mL (≈ 0.0747 µM)
MIC50 [2, 5]: 1 µg/mL (≈ 2.49 µM)
MIC90 [2, 6]: 4 µg/mL (≈ 9.96 µM)
MIC [2, 7]: 8 µg/mL (≈ 19.9 µM)
Compound: COc1c(N2C[C@@H]3CCCN[C@@H]3C2)c(F)cc2c(=O)c(C(=O)O)cn(C3CC3)c12 [Moxifloxacin, moxifloxacin]

MIC [1, 4]: 0.12 µg/mL (≈ 0.257 µM)
MIC50 [1, 5]: 0.25 µg/mL (≈ 0.535 µM)
MIC90 [1, 6]: 1 µg/mL (≈ 2.14 µM)
MIC [1, 7]: 1 µg/mL (≈ 2.14 µM)
MIC [2, 4]: 0.12 µg/mL (≈ 0.257 µM)
MIC50 [2, 5]: 0.5 µg/mL (≈ 1.07 µM)
MIC90 [2, 6]: 64 µg/mL (≈ 137 µM)
MIC [2, 7]: 64 µg/mL (≈ 137 µM)
Compound: NC[C@H]1O[C@H](O[C@H]2[C@H](O)[C@@H](O[C@H]3O[C@H](CO)[C@@H](O)[C@H](N)[C@H]3O)[C@H](N)C[C@@H]2N)[C@H](N)C[C@@H]1O [Tobramycin, tobramycin]

Compound: polyhexamethylene biguanid [PHMB]
MIC50 [1]: 2 µg/mL
MIC90 [1]: 2 µg/mL
Maximum (MIC) [1]: 2 µg/mL
Minimum (MIC) [1, 8]: 1 µg/mL
MIC50 [2]: 2 µg/mL
MIC90 [2]: 2 µg/mL
Maximum (MIC) [2]: 4 µg/mL
Minimum (MIC) [2, 8]: 1 µg/mL

Compound: ε-polylysine [εPL]
MIC50 [1]: 8 µg/mL
MIC90 [1]: 8 µg/mL
Maximum (MIC) [1]: 8 µg/mL
Minimum (MIC) [1, 8]: 4 µg/mL
effect on the colony counts (MRSA strain K-950): no effect
Colony Counts (MRSA strain K-950; 0.25X MIC (1 μg/ml), 0 Hours): 4.65 × 10^5 CFU/ml
Colony Counts (MRSA strain K-950; 0.25X MIC (1 μg/ml), 1 Hour): 3.90 × 10^5 CFU/ml
Colony Counts (MRSA strain K-950; 0.25X MIC (1 μg/ml), 2 Hours): 9.75 × 10^5 CFU/ml
Colony Counts (MRSA strain K-950; 0.25X MIC (1 μg/ml), 4 Hours): 2.95 × 10^7 CFU/ml
Colony Counts (MRSA strain K-950; 0.25X MIC (1 μg/ml), 6 Hours): 5.90 × 10^6 CFU/ml
Colony Counts (MRSA strain K-950; 0.25X MIC (1 μg/ml), 8 Hours): 1.19 × 10^7 CFU/ml
Colony Counts (MRSA strain K-950; 0.25X MIC (1 μg/ml), 24 Hours): 1.19 × 10^8 CFU/ml
Colony Counts (MRSA strain K-950; 1X MIC (4 μg/ml), 4 Hours): 6.30 × 10^4 CFU/ml
Colony Counts (MRSA strain K-950; 4X MIC (16 μg/ml), 0 Hours): 4.55 × 10^5 CFU/ml
Colony Counts (MRSA strain K-950; 4X MIC (16 μg/ml), 1 Hour): 4.25 × 10^5 CFU/ml
Colony Counts (MRSA strain K-950; 4X MIC (16 μg/ml), 2 Hours): 8.45 × 10^4 CFU/ml
Colony Counts (MRSA strain K-950; 4X MIC (16 μg/ml), 4 Hours): 1.92 × 10^3 CFU/ml
Colony Counts (MRSA strain K-950; 4X MIC (16 μg/ml), 6 Hours): 2.10 × 10^2 CFU/ml
Colony Counts (MRSA strain K-950; 4X MIC (16 μg/ml), 8 Hours): 3.00 × 10^1 CFU/ml
Colony Counts (MRSA strain K-950; 4X MIC (16 μg/ml), 24 Hours): 7.10 × 10^3 CFU/ml
decrease of MRSA colony counts (MRSA strain K-950; 4 times the MIC (16.0 μg/ml)): more than 3 logs
MIC of the tested strain (MRSA strain K-950; MRSA strain K-950): 4.0 µg/mL
decrease of MRSA colony counts (MRSA strain K-950; at MIC): 2.4 Log
action against MRSA (MRSA strain K-950; time-kill study, MRSA K-950): bactericidal
slit lamp microscopic examination and histologic findings ([3]; rabbits, 50, 150 and 500 μg/mL, eight doses in seven hours): did not reveal any abnormality
ocular tolerability ([3]; rabbits, one drop in the eye eight times during a seven-hour period, concentrations up to 500 μg/mL in PBS pH 7.3): well tolerated
MIC50 [2]: 4 µg/mL
MIC90 [2]: 8 µg/mL
Maximum (MIC) [2]: 8 µg/mL
Minimum (MIC) [2, 8]: 4 µg/mL
MICs range ([2]; all 50 isolates tested (MSSA and MRSA)): 4 to 8 µg/mL
